Laboratory results taken from ChEMBL document CHEMBL5678816, “A Next-Generation TRK Kinase Inhibitor Overcomes Acquired Resistance to Prior TRK Kinase Inhibition in Patients with TRK Fusion-Positive Solid Tumors” (Cancer Discov, 2017).
The source made the active and inactive calls. The rule behind the calls is not given here.

Columns and labels:
[1] = biological target: Insulin receptor (Homo sapiens) (UniProt P06213); assay: Inhibition of IR (unknown origin) at 1 uM in presence of ATP relative to control; values are per cent of control
[2] = test system: MDA-MB-231; assay: Inhibition of cell proliferation in human MDA-MB-231 cells upto 10 umol/L incubated for 72 hrs by DAPI staining based analysis; assay type: functional; conditions: dose <= 10.0 µmol/L
[3] = test system: BFTC-905; assay: Inhibition of cell proliferation in human BFTC-905 cells upto 10 umol/L incubated for 72 hrs by DAPI staining based analysis; assay type: functional; conditions: dose <= 10.0 µmol/L
[4] = test system: SNB-19; assay: Inhibition of cell proliferation in human SNB-19 cells upto 10 umol/L incubated for 72 hrs by DAPI staining based analysis; assay type: functional; conditions: dose <= 10.0 µmol/L
[5] = biological target: Serine/threonine-protein kinase NLK (Homo sapiens) (UniProt Q9UBE8); assay: Inhibition of NLK (unknown origin) at 1 uM in presence of ATP relative to control; values are per cent of control
[6] = biological target: Tyrosine-protein kinase TXK (Homo sapiens) (UniProt P42681); assay: Inhibition of Txk (unknown origin) at 1 uM in presence of ATP relative to control
[7] = test system: MDA-MB-453; assay: Inhibition of cell proliferation in human MDA-MB-453 cells upto 10 umol/L incubated for 72 hrs by DAPI staining based analysis; assay type: functional; conditions: dose <= 10.0 µmol/L
[8] = test system: DBTRG-05MG; assay: Inhibition of cell proliferation in human DBTRG-05MG cells upto 10 umol/L incubated for 72 hrs by DAPI staining based analysis; assay type: functional; conditions: dose <= 10.0 µmol/L
[9] = biological target: FKBP12A/mTOR (Homo sapiens) (UniProt P62942+P42345); assay: Inhibition of mTOR/FKBP12 (unknown origin) at 1 uM in presence of ATP relative to control; values are per cent of control
[10] = biological target: Serine/threonine-protein kinase MRCK beta (Homo sapiens) (UniProt Q9Y5S2); assay: Inhibition of MRCKbeta (unknown origin) at 1 uM in presence of ATP relative to control; values are per cent of control
[11] = biological target: AMP-activated protein kinase (AMPK) alpha-1/beta-1/gamma-1 (Homo sapiens) (UniProt P54619+Q9Y478+Q13131); assay: Inhibition of AMPK alpha1/beta1/gamma1 (unknown origin) at 1 uM in presence of ATP relative to control; values are per cent of control
[12] = AUC in pediatric patient with recurrent ETV6-NTRK3-rearranged infantile fibrosarcoma at 100 mg administered twice a day as liquid formulation for 29 day by LC-MS/MS analysis; assay type: ADME; conditions: human, in vivo
[13] = biological target: Serine/threonine-protein kinase WNK2 (Homo sapiens) (UniProt Q9Y3S1); assay: Inhibition of WNK2 (unknown origin) at 1 uM in presence of ATP relative to control; values are per cent of control
[14] = biological target: Tyrosine-protein kinase ITK/TSK (Homo sapiens) (UniProt Q08881); assay: Inhibition of ITK (unknown origin) at 1 uM in presence of ATP relative to control; values are per cent of control
[15] = species on record: Homo sapiens; assay: Inhibition of Abl-P (unknown origin) at 1 uM in presence of ATP relative to control; values are per cent of control
[16] = test system: SCC-4; assay: Inhibition of cell proliferation in human SCC-4 cells upto 10 umol/L incubated for 72 hrs by DAPI staining based analysis; assay type: functional; conditions: dose <= 10.0 µmol/L
[17] = test system: A101D; assay: Inhibition of cell proliferation in human A101D cells upto 10 umol/L incubated for 72 hrs by DAPI staining based analysis; assay type: functional; conditions: dose <= 10.0 µmol/L
[18] = biological target: Interleukin-1 receptor-associated kinase 4 (Homo sapiens) (UniProt Q9NWZ3); assay: Inhibition of IRAK4 (unknown origin) at 1 uM in presence of ATP relative to control; values are per cent of control
[19] = biological target: Tyrosine-protein kinase Blk (Homo sapiens) (UniProt P51451); assay: Inhibition of BLK (unknown origin) at 1 uM in presence of ATP relative to control; values are per cent of control
[20] = biological target: Mitogen-activated protein kinase 10 (Homo sapiens) (UniProt P53779); assay: Inhibition of JNK3 (unknown origin) at 1 uM in presence of ATP relative to control; values are per cent of control
[21] = test system: HEL 92.1.7; assay: Inhibition of cell proliferation in human HEL 92.1.7 cells upto 10 umol/L incubated for 72 hrs by DAPI staining based analysis; assay type: functional; conditions: dose <= 10.0 µmol/L
[22] = biological target: Serine/threonine-protein kinase D2 (Homo sapiens) (UniProt Q9BZL6); assay: Inhibition of PKD2 (unknown origin) at 1 uM in presence of ATP relative to control; values are per cent of control
[23] = biological target: Proto-oncogene tyrosine-protein kinase Src (Homo sapiens) (UniProt P12931); assay: Inhibition of SrC (unknown origin) at 1 uM in presence of ATP relative to control; values are per cent of control
[24] = biological target: Ribosomal protein S6 kinase alpha-5 (Homo sapiens) (UniProt O75582); assay: Inhibition of MSK1 (unknown origin) at 1 uM in presence of ATP relative to control; values are per cent of control
[25] = biological target: Calcium/calmodulin-dependent protein kinase type II subunit delta (Homo sapiens) (UniProt Q13557); assay: Inhibition of CAMK2d (unknown origin) at 1 uM in presence of ATP relative to control; values are per cent of control
[26] = biological target: Tyrosine-protein kinase Lck (Homo sapiens) (UniProt P06239); assay: Inhibition of Lck (unknown origin) at 1 uM in presence of ATP relative to control; values are per cent of control
[27] = test system: CAL-27; assay: Inhibition of cell proliferation in human CAL-27 cells upto 10 umol/L incubated for 72 hrs by DAPI staining based analysis; assay type: functional; conditions: dose <= 10.0 µmol/L
[28] = test system: UMUC3; assay: Inhibition of cell proliferation in human UMUC3 cells upto 10 umol/L incubated for 72 hrs by DAPI staining based analysis; assay type: functional; conditions: dose <= 10.0 µmol/L
[29] = biological target: Tyrosine-protein kinase Fer (Homo sapiens) (UniProt P16591); assay: Inhibition of Fer (unknown origin) at 1 uM in presence of ATP relative to control; values are per cent of control
[30] = biological target: MAP kinase-interacting serine/threonine-protein kinase 2 (Homo sapiens) (UniProt Q9HBH9); assay: Inhibition of MKNK2 (unknown origin) at 1 uM in presence of ATP relative to control; values are per cent of control

Sequence of Insulin receptor (Homo sapiens) (P06213 28-758 limits assumed): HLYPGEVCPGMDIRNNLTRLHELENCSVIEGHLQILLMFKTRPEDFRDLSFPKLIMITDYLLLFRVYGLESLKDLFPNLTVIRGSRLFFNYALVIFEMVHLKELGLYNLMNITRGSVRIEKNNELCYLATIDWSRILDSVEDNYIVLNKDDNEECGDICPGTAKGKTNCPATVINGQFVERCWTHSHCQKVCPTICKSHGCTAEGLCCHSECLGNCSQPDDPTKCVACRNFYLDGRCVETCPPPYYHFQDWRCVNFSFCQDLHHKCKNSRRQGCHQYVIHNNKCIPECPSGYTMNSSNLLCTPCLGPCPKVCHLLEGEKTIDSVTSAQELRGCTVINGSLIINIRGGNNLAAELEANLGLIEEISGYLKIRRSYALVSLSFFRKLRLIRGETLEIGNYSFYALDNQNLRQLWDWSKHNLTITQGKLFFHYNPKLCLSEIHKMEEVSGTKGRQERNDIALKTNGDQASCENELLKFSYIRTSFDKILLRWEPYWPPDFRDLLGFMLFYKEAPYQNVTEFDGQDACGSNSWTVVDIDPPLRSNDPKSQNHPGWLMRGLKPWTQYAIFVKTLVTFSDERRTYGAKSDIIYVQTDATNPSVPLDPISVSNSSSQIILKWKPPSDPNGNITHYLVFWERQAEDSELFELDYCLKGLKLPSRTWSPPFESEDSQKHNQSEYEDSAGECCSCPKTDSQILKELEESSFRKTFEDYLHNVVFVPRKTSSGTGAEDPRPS
Sequence of Insulin receptor (Homo sapiens) (P06213 763-1382 limits assumed): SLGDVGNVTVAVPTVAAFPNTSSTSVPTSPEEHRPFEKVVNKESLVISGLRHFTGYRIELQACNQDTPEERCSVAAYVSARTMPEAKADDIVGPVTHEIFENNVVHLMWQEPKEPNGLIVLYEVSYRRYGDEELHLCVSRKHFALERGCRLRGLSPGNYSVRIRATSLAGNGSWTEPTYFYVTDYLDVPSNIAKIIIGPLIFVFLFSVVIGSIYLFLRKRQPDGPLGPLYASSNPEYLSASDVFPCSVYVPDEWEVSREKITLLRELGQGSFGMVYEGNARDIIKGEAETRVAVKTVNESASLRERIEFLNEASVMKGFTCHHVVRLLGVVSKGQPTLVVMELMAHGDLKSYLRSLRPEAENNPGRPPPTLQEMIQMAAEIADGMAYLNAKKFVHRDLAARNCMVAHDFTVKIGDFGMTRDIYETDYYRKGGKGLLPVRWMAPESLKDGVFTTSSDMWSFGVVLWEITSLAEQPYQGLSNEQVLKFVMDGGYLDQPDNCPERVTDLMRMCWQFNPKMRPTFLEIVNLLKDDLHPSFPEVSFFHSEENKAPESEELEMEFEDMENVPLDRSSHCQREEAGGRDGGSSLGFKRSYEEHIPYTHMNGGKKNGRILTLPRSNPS
Sequence of Ribosomal protein S6 kinase alpha-5 (Homo sapiens) (O75582 whole entry, looked up): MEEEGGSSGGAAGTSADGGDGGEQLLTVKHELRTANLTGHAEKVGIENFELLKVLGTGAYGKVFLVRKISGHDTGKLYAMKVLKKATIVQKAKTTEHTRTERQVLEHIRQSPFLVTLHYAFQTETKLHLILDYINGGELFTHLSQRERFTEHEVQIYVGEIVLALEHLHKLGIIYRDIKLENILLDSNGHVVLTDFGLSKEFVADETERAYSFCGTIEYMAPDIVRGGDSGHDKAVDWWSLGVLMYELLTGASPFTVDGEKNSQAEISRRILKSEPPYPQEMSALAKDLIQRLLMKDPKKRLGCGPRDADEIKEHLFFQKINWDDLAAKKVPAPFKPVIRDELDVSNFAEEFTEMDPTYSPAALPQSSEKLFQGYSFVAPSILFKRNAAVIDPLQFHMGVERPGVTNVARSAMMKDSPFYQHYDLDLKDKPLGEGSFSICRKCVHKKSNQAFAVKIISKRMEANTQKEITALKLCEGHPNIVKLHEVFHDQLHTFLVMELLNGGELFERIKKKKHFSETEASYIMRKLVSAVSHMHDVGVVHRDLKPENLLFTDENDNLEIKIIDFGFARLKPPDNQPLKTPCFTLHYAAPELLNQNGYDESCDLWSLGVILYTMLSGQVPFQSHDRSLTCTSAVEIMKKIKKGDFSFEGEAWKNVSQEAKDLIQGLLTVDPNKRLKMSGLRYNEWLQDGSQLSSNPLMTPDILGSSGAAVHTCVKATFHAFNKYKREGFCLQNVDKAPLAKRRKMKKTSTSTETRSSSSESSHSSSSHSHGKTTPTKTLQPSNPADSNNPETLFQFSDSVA
Sequence of AMP-activated protein kinase (AMPK) alpha-1/beta-1/gamma-1 (Homo sapiens) (P54619 whole entry): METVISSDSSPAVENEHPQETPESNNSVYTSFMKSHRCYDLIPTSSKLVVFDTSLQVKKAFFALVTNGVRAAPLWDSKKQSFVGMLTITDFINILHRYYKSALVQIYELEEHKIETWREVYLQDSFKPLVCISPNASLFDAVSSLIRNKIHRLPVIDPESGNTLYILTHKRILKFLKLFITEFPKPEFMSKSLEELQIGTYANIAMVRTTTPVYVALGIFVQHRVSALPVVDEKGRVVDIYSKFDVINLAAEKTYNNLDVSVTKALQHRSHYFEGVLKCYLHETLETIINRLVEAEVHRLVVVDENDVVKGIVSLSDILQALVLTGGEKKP
Sequence of AMP-activated protein kinase (AMPK) alpha-1/beta-1/gamma-1 (Homo sapiens) (Q13131 whole entry partner): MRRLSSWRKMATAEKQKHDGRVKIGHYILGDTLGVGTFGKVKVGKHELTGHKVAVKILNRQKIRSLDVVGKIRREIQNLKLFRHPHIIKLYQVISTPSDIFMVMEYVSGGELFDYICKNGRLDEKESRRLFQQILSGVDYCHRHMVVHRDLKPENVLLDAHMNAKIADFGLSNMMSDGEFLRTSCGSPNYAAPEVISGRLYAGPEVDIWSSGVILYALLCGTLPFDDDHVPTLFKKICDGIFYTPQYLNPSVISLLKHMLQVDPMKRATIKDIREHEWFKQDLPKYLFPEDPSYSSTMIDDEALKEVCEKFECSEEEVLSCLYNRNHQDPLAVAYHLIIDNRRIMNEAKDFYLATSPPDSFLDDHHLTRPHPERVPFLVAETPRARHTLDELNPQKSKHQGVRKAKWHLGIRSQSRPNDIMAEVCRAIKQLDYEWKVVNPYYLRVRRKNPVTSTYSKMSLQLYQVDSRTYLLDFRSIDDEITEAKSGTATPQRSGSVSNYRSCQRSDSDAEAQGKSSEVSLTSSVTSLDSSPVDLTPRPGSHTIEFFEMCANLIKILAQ
Sequence of AMP-activated protein kinase (AMPK) alpha-1/beta-1/gamma-1 (Homo sapiens) (Q9Y478 2-270 partner limits assumed): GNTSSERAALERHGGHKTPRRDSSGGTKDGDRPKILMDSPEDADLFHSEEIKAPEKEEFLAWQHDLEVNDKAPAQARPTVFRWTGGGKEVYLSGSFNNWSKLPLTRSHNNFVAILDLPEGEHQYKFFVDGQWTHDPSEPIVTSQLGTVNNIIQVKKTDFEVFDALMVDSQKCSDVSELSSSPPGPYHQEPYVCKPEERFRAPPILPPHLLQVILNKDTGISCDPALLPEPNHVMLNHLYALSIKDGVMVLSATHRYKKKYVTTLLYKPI
Sequence of Tyrosine-protein kinase Fer (Homo sapiens) (P16591 whole entry, looked up): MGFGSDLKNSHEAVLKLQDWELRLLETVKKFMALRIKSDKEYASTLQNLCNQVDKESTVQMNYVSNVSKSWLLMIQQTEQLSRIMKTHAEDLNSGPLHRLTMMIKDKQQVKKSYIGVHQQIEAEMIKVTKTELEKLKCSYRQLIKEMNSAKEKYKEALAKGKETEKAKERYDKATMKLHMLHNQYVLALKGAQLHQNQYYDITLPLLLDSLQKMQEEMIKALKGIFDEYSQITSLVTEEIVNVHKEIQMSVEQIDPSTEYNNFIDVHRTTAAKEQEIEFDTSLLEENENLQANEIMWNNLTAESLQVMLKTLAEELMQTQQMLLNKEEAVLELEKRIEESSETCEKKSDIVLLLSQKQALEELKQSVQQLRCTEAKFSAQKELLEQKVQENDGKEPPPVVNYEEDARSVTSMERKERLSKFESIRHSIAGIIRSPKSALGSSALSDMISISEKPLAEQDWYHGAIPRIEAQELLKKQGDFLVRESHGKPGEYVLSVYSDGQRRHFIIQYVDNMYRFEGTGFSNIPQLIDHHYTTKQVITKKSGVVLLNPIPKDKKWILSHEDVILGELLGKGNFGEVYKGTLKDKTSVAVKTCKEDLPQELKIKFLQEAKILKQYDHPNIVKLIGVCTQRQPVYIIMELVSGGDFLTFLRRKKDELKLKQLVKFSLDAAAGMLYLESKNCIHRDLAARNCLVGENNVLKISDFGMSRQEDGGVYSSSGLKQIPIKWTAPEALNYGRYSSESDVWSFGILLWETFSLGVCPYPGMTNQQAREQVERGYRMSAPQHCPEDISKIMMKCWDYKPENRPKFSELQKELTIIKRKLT
Sequence of Tyrosine-protein kinase Lck (Homo sapiens) (P06239 2-509 limits assumed): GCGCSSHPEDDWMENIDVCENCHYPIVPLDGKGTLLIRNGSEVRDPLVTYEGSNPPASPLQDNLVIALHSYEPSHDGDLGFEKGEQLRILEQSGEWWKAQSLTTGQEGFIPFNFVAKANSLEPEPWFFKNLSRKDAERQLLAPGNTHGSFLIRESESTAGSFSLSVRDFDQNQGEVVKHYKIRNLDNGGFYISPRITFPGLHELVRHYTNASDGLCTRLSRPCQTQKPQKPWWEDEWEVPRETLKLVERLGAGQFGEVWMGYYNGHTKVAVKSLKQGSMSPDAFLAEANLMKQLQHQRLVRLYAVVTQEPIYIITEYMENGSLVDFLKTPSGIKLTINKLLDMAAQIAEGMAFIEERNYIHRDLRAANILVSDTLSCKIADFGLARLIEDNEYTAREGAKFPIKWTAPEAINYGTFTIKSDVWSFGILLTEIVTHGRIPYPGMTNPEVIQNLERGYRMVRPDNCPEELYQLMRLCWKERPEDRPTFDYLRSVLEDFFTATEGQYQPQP
Sequence of FKBP12A/mTOR (Homo sapiens) (P62942 2-108 limits assumed, other chains not shown): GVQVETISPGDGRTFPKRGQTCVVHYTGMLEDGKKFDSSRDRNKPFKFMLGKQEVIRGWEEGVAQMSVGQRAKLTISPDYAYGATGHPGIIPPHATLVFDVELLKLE

C[C@@H]1CCc2ncc(F)cc2[C@H]2CCCN2c2ccn3ncc(c3n2)C(=O)N1 [SELITRECTINIB]
residual activity [1]: 92%
inhibition [2]: inactive
inhibition [3]: inactive
inhibition [4]: inactive
residual activity [5]: 110%
inhibition [6]: 14%
inhibition [7]: inactive
inhibition [8]: inactive
residual activity [9]: 102%
residual activity [10]: 128%
residual activity [11]: 96.5%
AUC at 696 h [12]: 4410 ng·h/mL
residual activity [13]: 128%
residual activity [14]: 90.5%
residual activity [15]: 87%
inhibition [16]: inactive
inhibition [17]: inactive
residual activity [18]: 95%
residual activity [19]: 108%
residual activity [20]: 109%
inhibition [21]: inactive
residual activity [22]: 110%
residual activity [23]: 102%
residual activity [24]: 131%
residual activity [25]: 100%
residual activity [26]: 92.5%
inhibition [27]: inactive
inhibition [28]: inactive
residual activity [29]: 91%
residual activity [30]: 100%
